In article PMC7925909, “The Multi-Level Mechanism of Action of a Pan-Ras Inhibitor Explains its Antiproliferative Activity on Cetuximab-Resistant Cancer Cells” (Frontiers in Molecular Biosciences, 2021):

Tests used:
HRas = biological target: T1, HRas (Homo sapiens, UniProt P01112); assay: STD-NMR and native MS of the HRas-GDP-cmp4 ternary complex; the EC50 is from SPR inhibition of RasGRF1 binding to HRas-GDP; mant-nucleotide dissociation/exchange also inhibited
T1 construct: N-terminal His-tagged, residues 1-166

HRas^G13D = biological target: T2, HRas^G13D (Homo sapiens, UniProt P01112, G13D); assay: STD-NMR on HRas G13D-GDP; dose-dependent inhibition of intrinsic and GEF-mediated mant-nucleotide dissociation/exchange; assay type: binding
T2 construct: N-terminal His-tagged, residues 1-166
T2 sequence (P01112 1-166 G13D): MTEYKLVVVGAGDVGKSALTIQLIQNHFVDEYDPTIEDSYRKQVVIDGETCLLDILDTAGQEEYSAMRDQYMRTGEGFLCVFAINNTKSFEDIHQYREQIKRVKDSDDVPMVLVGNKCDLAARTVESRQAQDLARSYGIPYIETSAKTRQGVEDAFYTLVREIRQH

T1 sequence (P01112 1-166): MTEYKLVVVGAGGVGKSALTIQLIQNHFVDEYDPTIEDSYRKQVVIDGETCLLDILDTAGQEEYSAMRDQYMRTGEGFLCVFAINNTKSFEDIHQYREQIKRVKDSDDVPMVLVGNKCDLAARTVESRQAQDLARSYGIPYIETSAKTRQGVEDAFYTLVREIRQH

EC50 (HRas): ~170 µM
SMILES: OC[C@H]1O[C@@H](O[C@H]2[C@H](O)[C@@H](O)[C@H](N(Cc3ccc(O)c(O)c3)OCc3ccccc3)O[C@@H]2CO)[C@H](O)[C@@H](O)[C@H]1O [cmp4]
STD-NMR on HRas G13D-GDP; dose-dependent inhibition of intrinsic and GEF-mediate (HRas^G13D): STD analysis on HRas^G13D mutant protein saturated with cmp4 shows that cmp4 also interacts with the mutant protein
